This is an account of results in patent US12636376B2, “Methods and compositions for use of growth factor antibodies in combination with non-tyrosine targeting kinase inhibitors” (In3Bio Ltd., priority 2019, dated 2026).

The test system of data set [1] is pEGFR, pAkt, pErk½ signaling in H508 cells. Put plainly: Western blot of pEGFR, pAkt, pErk½ signaling, 2 hour incubation, H508 cells. The format is cell-based. The following applies: 2 hour incubation with EGF, FIG. 20. Background: In western blotting, separated proteins are transferred to a membrane and probed.
The conditions of data set [2]: patients taking Alpelisib; cited from earlier work.
The conditions of data set [3]: cited from earlier work.

For `Cc1nc(NC(=O)N2CCC[C@H]2C(N)=O)sc1-c1ccnc(C(C)(C)C(F)(F)F)c1` [Alpelisib, (2S)-1-N-[4-methyl-5-[2-(1,1,1-trifluoro-2-methylpropan-2-yl)pyridin-4-yl]-1,3-thiazol-2-yl]pyrrolidine-1,2-dicarboxamide], in data set [1], the pAkt result is reported as “inhibit pAkt” and the “pEGFR or pErk½ signaling” value is given as “do not affect”. Also, in data set [2], the “dose dependent benefit from treatment: advantage of 300 mg once daily over 150 mg twice daily” value is on record as 22% and the “dose dependent benefit from treatment: advantage of a 200 mg daily dose over a 100 mg dose” value is 51%.

Take `COC(=O)N[C@@H](C)CNc1nccc(-c2cn(C(C)C)nc2-c2cc(Cl)cc(NS(C)(=O)=O)c2F)n1` [Encorafenib, methyl N-[(2S)-1-[[4-[3-[5-chloro-2-fluoro-3-(methanesulfonamido)phenyl]-1-propan-2-ylpyrazol-4-yl]pyrimidin-2-yl]amino]propan-2-yl]carbamate]: the “median Tmax” value in data set [3] (after oral administration) is 2 h. For the same compound, the dose absorbed result in data set [3] (oral administration) is listed as “At least 86%”.

Usually bioavailability stands for the share of a dose that reaches the circulation, judged against a reference dose that is usually intravenous. With `CC(=O)Nc1cccc(-n2c(=O)n(C3CC3)c(=O)c3c(Nc4ccc(I)cc4F)n(C)c(=O)c(C)c32)c1` [Trametinib, N-[3-[3-cyclopropyl-5-(2-fluoro-4-iodoanilino)-6,8-dimethyl-2,4,7-trioxopyrido[4,3-d]pyrimidin-1-yl]phenyl]acetamide], in data set [3] (human, in vivo), the Elimination half-life was 93.6 to 115 h. Further, the “peak plasma concentration occurred post-dose (Tmax)” value in data set [3] (oral administration, patients with BRAF V600 mutation-positive melanoma) was 1.5 h. For the same compound, in data set [3] (single 2 mg oral dose), the bioavailability is recorded as 72%.
